Source: US20230233514A1, “ANTIVIRAL COMPOUNDS AND METHODS OF USING THE SAME” (priority 2020, published 2023)
Like-named read-outs stand apart in the source and are kept apart here.

What was measured:
SARS-CoV-2 [1] = type: cell-based
Vero E6 cells [2] = tested on: Vero E6 cells
SARS-CoV-2 [3] = type: cell-based; details: compound 10 and 31.6 μM, MOI 0.01, 72 hours
Vero E6 cells [4] = details: 48 hours, CellTiterGlo
[5] = 1 hour pre-treatment, 1 nM-100 μM, MOI 0.05, 48 hours, Vero E6 cells

## Miquelianin/Quercetin 3-glucuronide
SARS-CoV-2 [1]
  effect on Viral Load (viral burden): did not show an effect

## COc1ccc(-c2cc(=O)c3c(O)cc(O)cc3o2)cc1-c1c(O)cc(O)c2c(=O)cc(-c3ccc(O)cc3)oc12 [Bilobetin]
SARS-CoV-2 [1]; [5]
  effect on Viral Load (viral burden): reduction in Viral Load levels

## C[C@@H]1O[C@@H](OC[C@H]2O[C@@H](Oc3c(-c4ccc(O)c(O)c4)oc4cc(O)cc(O)c4c3=O)[C@H](O)[C@@H](O)[C@@H]2O)[C@H](O)[C@H](O)[C@H]1O [Rutin]
Vero E6 cells [2]
  effect on Host Cell Number (cell viability): did not show an effect

## Oc1cc(O)c2c(c1)O[C@H](c1ccc(O)c(O)c1)[C@H](O)[C@H]2c1c(O)cc(O)c2c1O[C@H](c1ccc(O)c(O)c1)[C@H](O)C2 [Procyanidin B2]
Vero E6 cells [2]
  effect on Host Cell Number (cell viability): did not show an effect
SARS-CoV-2 [1]; [5]
  effect on Viral Load (viral burden): did not show an effect

## O=c1oc2c(O)c(O)cc3c(=O)oc4c(O)c(O)cc1c4c23 [Ellagic Acid]
SARS-CoV-2 [3]
  Remdesivir concentration at which the compound synergized: ≤ 0.625 µM
  combined effect with Remdesivir on host cell viability: synergized

## Hypericin
SARS-CoV-2 [1]; [5]
  effect on Viral Load (viral burden): reduction in Viral Load levels

## Punicalagin
SARS-CoV-2 [1]; [5]
  effect on Viral Load (viral burden): reduction in Viral Load levels

## O=c1c(O)cc([C@H]2Oc3cc(O)cc(O)c3C[C@H]2O)cc2c([C@H]3Oc4cc(O)cc(O)c4C[C@H]3O)cc(O)c(O)c12 [Theaflavin]
Vero E6 cells [2]
  effect on Host Cell Number (cell viability): did not show an effect
SARS-CoV-2 [1]; [5]
  effect on Viral Load (viral burden): did not show an effect

## O=c1cc(-c2ccc(O)c(-c3c(O)cc(O)c4c(=O)cc(-c5ccc(O)cc5)oc34)c2)oc2cc(O)cc(O)c12 [Amentoflavone]
SARS-CoV-2 [1]; [5]
  effect on Viral Load (viral burden): reduction in Viral Load levels

## O=c1oc2cc(O)ccc2c2ccc(O)cc12 [Urolithin A]
SARS-CoV-2 [3]
  Remdesivir concentration at which the compound synergized: ≤ 1.25 µM
  combined effect with Remdesivir on host cell viability: synergized

## CN1C[C@@H](C(=O)N[C@]2(C)O[C@@]3(O)[C@@H]4CCCN4C(=O)[C@H](Cc4ccccc4)N3C2=O)C=C2c3cccc4[nH]cc(c34)C[C@H]21 [Ergotamine]
SARS-CoV-2 [1]; [5]
  effect on Viral Load (viral burden): reduction in Viral Load levels

## C[C@@H]1CC[C@@]2(OC1)O[C@H]1C[C@H]3[C@@H]4CC=C5C[C@@H](O[C@@H]6O[C@H](CO)[C@@H](O[C@@H]7O[C@@H](C)[C@H](O)[C@@H](O)[C@H]7O)[C@H](O)[C@H]6O[C@@H]6O[C@@H](C)[C@H](O)[C@@H](O)[C@H]6O)CC[C@]5(C)[C@H]4CC[C@]3(C)[C@H]1[C@@H]2C [Dioscin]
SARS-CoV-2 [1]; [5]
  effect on Viral Load (viral burden): reduction in Viral Load levels
Vero E6 cells [4]
  concentrations that did not significantly impact Vero E6 cell viability compared to the DMSO treated control: less than or equal to 0.1 μM
  toxicity observed at (and above) concentration: ≥ 1 µM

## COc1cc(O)c2c(=O)cc(-c3ccc(OC)c(-c4c(O)cc(O)c5c(=O)cc(-c6ccc(O)cc6)oc45)c3)oc2c1 [Ginkgetin]
SARS-CoV-2 [1]; [5]
  effect on Viral Load (viral burden): reduction in Viral Load levels

## O=C(/C=C/c1ccc(O)cc1)OC[C@H]1O[C@@H](Oc2c(-c3ccc(O)cc3)oc3cc(O)cc(O)c3c2=O)[C@H](O)[C@@H](O)[C@@H]1O [Tiliroside]
Vero E6 cells [2]
  effect on Host Cell Number (cell viability): did not show an effect
Vero E6 cells [4]
  concentrations that only mildly impacted Vero E6 cell viability compared to the DMSO treated control: less than or equal to 10 μM
  toxicity observed at (and above) concentration: ≥ 100 µM

## O=C(O[C@H]1Cc2c(O)cc(O)cc2O[C@H]1c1cc(O)c(O)c2c(=O)c(O)cc([C@H]3Oc4cc(O)cc(O)c4C[C@H]3O)cc12)c1cc(O)c(O)c(O)c1 [Theaflavin-3-gallate, Theaflavin 3-gallate]
SARS-CoV-2 [1]; [5]
  effect on Viral Load (viral burden): reduction in Viral Load levels

## CC1OC(OCC2OC(Oc3c(-c4ccc(O)cc4)oc4cc(OC5OC(C)C(O)C(O)C5O)cc(O)c4c3=O)C(O)C(O)C2O)C(O)C(O)C1O (stereo not shown) [Robinin]
Vero E6 cells [2]
  effect on Host Cell Number (cell viability): did not show an effect
SARS-CoV-2 [1]; [5]
  effect on Viral Load (viral burden): did not show an effect
